Experiments:
panel of 442 kinases [1] = target: T1, panel of 442 kinases (Homo sapiens, UniProt P07949, V804M); type: binding; settings: Compound Concentration 10 µM
T1 construct: purchased KINOMEscan
From the text: (§1) We assessed the selectivity of members of this scaffold using the KINOMEscan methodology across a near comprehensive panel of 442 kinases [[18,27]].

panel of 442 kinases [2] = target: T2, panel of 442 kinases (Homo sapiens, UniProt Q8TBX8); type: binding; settings: Compound Concentration 10 µM
T2 construct: purchased KINOMEscan
T2 sequence (Q8TBX8 1-421): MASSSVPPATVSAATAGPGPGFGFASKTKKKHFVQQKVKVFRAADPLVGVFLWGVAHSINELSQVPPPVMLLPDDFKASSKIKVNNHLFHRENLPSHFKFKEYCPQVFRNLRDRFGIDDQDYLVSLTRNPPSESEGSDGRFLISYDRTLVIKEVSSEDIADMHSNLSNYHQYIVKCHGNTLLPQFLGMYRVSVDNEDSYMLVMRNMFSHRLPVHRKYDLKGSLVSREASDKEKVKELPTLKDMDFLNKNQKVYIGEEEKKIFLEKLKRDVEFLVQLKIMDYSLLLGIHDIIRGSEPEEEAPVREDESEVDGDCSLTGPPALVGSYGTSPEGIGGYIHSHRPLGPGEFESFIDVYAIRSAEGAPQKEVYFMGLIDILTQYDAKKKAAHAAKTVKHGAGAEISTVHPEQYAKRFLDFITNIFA
From the text: as §1

T1 sequence (P07949 29-1114 V804M): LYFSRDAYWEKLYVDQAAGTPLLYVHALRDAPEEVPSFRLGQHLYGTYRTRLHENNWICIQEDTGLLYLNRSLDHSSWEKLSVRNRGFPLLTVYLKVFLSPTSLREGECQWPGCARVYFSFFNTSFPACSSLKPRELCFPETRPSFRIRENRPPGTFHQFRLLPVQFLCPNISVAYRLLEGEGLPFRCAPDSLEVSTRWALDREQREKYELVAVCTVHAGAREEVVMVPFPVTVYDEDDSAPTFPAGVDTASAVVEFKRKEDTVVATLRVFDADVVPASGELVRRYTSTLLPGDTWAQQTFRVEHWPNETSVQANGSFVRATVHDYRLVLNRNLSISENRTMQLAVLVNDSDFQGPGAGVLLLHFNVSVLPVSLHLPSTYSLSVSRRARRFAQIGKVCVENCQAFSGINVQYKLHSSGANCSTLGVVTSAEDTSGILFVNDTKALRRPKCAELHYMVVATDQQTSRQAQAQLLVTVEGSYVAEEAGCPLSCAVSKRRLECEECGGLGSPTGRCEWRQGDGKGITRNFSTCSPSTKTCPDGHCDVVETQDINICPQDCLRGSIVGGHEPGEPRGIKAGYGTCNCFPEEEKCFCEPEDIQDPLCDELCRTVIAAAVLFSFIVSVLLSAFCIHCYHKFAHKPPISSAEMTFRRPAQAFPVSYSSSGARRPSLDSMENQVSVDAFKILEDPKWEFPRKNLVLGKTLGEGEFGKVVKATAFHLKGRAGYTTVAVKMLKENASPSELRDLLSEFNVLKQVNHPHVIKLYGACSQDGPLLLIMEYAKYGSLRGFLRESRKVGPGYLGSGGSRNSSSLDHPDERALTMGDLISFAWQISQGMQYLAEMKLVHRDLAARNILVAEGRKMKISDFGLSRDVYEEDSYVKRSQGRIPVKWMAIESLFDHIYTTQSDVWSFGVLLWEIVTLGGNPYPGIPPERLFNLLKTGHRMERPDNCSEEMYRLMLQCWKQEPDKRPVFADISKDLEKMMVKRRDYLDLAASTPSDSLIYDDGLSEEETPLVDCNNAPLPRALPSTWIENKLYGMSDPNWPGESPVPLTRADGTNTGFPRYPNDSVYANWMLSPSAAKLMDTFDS

| SMILES | KINOMEscan: RET(V804M) (panel of 442 kinases [1]) | KINOMEscan: PIP5K2C (panel of 442 kinases [2]) |
| --- | --- | --- |
| COc1cc(C(=O)N2CCC(N3CCN(C)CC3)CC2)ccc1Nc1ncc2c(n1)N(C1CCCC1)c1ccccc1C(=O)N2C [Compound 25, 11-cyclopentyl-2-((2-methoxy-4-(4-(4-methylpiperazin-1-yl)piperidine-1-carbonyl)phenyl)amino)-5-methyl-5H-benzo[e]pyrimido[5,4-b][1,4]diazepin-6(11H)-one] | 100 | 96 |
| CCOc1cc(C(=O)N2CCC(N3CCN(C)CC3)CC2)ccc1Nc1ncc2c(n1)N(C1CCCC1)c1ccccc1C(=O)N2C [Compound 26] | 100 | 93 |
| COc1cc(C(=O)N2CCC(N3CCN(C)CC3)CC2)ccc1Nc1ncc2c(n1)N(C)c1ccccc1C(=O)N2C [15 (LRRK2-IN-1)] | 80 | 40 |
